Reference: ChEMBL document CHEMBL1156725, “8-Biarylchromen-4-one inhibitors of the DNA-dependent protein kinase (DNA-PK)” (Bioorg Med Chem Lett, 2008)

The molecules below were run against DNA-dependent protein kinase catalytic subunit (Homo sapiens, UniProt P78527) (assay: Inhibition of DNA-dependent protein kinase).
Sequence of DNA-dependent protein kinase catalytic subunit (P78527 whole entry): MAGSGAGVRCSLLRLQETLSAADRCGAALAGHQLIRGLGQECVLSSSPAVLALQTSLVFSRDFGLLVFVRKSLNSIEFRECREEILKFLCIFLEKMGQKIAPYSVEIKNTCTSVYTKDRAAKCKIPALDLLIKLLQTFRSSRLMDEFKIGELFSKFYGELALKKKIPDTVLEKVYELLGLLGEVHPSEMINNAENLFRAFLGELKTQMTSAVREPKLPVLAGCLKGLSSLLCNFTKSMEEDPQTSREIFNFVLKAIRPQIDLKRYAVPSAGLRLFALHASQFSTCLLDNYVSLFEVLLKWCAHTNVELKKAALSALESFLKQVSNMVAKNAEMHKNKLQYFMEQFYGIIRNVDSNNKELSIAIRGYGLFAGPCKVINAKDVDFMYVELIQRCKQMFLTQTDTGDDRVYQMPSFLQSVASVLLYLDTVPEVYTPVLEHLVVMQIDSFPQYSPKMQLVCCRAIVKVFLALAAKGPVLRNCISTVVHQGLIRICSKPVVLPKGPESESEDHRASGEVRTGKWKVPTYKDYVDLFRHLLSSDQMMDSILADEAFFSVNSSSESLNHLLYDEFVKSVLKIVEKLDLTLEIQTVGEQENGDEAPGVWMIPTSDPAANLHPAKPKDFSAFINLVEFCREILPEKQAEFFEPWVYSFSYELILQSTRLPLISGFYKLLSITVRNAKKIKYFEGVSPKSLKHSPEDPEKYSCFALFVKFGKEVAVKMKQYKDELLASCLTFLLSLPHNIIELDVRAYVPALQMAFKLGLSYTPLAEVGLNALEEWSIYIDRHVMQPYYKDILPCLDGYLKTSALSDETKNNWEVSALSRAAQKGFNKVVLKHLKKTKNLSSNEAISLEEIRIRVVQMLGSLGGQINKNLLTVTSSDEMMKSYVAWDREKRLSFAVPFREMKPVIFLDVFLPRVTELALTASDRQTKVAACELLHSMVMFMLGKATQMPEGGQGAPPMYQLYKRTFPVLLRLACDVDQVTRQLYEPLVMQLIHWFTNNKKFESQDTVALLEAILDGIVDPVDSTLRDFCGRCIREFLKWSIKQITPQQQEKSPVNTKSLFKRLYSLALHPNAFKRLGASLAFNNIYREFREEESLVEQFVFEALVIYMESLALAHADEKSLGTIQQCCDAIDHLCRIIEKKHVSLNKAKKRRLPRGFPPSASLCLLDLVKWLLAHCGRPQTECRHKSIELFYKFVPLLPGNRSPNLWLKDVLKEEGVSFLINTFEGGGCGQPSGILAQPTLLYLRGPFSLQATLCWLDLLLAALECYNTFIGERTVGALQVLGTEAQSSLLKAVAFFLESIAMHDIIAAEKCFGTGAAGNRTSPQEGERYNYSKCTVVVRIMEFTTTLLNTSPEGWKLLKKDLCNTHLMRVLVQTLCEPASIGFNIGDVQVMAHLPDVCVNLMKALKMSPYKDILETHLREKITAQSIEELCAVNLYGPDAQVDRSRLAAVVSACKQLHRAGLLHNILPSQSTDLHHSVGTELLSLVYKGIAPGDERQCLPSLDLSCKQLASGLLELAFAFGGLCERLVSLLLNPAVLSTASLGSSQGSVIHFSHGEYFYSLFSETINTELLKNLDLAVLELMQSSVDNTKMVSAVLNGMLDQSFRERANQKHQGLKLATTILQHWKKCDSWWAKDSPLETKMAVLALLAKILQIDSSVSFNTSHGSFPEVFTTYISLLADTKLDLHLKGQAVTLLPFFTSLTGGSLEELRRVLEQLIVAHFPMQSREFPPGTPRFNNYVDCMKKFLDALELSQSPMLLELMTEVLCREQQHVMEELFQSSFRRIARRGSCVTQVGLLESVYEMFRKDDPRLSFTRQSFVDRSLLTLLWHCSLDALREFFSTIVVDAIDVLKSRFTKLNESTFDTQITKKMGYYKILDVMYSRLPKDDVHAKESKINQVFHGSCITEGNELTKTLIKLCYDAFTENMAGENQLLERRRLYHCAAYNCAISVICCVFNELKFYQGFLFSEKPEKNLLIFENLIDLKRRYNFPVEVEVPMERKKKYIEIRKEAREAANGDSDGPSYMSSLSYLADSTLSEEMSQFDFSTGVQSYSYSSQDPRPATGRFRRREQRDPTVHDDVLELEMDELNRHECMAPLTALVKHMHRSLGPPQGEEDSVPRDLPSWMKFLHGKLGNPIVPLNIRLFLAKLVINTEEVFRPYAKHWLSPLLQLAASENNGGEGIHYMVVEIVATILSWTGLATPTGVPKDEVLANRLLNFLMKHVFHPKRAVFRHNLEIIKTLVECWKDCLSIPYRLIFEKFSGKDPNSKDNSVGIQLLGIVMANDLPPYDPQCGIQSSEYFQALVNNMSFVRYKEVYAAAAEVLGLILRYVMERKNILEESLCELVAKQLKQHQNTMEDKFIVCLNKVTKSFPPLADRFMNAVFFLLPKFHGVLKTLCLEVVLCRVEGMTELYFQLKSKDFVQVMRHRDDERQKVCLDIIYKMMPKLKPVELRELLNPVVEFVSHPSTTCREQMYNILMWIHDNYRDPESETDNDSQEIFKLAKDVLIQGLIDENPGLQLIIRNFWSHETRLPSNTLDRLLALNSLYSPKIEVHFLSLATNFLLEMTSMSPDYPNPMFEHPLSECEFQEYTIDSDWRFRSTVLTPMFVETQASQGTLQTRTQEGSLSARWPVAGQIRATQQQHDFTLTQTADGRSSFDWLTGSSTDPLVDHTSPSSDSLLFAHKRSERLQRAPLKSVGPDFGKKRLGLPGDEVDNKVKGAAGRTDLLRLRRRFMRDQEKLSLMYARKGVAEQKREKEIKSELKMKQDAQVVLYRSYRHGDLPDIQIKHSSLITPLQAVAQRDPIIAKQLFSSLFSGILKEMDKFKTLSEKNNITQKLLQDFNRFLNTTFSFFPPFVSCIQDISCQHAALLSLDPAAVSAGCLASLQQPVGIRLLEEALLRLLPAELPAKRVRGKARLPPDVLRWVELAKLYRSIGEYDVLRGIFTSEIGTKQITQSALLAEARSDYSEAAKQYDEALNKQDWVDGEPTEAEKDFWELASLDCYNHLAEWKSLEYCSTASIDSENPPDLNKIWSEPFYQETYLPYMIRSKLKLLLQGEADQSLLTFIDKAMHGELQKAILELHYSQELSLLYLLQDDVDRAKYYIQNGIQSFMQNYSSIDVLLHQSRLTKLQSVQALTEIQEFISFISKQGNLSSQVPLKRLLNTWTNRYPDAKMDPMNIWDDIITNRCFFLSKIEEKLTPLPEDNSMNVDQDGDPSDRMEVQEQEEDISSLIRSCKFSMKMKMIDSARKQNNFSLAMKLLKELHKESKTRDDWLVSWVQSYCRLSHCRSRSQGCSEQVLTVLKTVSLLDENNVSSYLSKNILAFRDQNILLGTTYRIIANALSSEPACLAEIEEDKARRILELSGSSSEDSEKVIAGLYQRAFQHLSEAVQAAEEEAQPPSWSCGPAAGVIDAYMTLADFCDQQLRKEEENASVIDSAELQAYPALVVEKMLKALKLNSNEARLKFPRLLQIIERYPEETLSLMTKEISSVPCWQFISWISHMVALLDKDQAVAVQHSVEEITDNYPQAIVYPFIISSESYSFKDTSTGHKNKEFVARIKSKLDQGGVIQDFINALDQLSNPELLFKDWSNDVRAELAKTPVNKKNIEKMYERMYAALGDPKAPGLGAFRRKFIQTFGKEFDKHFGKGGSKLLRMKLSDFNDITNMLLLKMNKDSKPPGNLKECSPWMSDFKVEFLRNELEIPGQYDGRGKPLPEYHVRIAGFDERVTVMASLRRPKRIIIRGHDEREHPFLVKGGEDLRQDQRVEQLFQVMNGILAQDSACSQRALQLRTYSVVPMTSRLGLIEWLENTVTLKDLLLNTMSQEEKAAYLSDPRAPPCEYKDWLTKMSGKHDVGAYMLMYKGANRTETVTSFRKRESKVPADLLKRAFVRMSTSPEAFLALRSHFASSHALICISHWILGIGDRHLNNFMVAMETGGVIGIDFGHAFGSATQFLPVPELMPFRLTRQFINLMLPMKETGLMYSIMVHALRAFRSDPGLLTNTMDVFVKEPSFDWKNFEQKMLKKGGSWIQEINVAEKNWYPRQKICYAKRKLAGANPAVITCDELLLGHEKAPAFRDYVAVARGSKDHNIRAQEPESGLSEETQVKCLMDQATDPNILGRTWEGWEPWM

Row | SMILES | IC50
1 | O=c1cc(N2CCOCC2)oc2c(-c3cccc4c3sc3ccccc34)cccc12 | 12 nM
2 | O=c1cc(N2CCOCC2)oc2c(-c3cccc(-c4ncccn4)c3)cccc12 | 3050 nM
3 | O=c1cc(N2CCOCC2)oc2c(-c3cccc(-c4cncnc4)c3)cccc12 | 1570 nM
4 | O=c1cc(N2CCOCC2)oc2c(-c3cc(-c4ccccc4)cs3)cccc12 | 90 nM
5 | O=c1cc(N2CCOCC2)oc2c(-c3ccc(-c4ccccc4)s3)cccc12 | 400 nM
6 | O=c1cc(N2CCOCC2)oc2c(-c3ncc(-c4ccccc4)s3)cccc12 | 370 nM
7 | O=c1cc(N2CCOCC2)oc2c(-c3cccc(-c4ccc(O)cc4)c3)cccc12 | 140 nM
8 | N#Cc1ccc(-c2cccc(-c3cccc4c(=O)cc(N5CCOCC5)oc34)c2)cc1 | 1480 nM
9 | Nc1cc(C(=O)O)cc(-c2cccc(-c3cccc4c(=O)cc(N5CCOCC5)oc34)c2)c1 | 510 nM
10 | O=c1cc(N2CCOCC2)oc2c(-c3cccc(-c4ccco4)c3)cccc12 | 380 nM
11 | O=c1cc(N2CCOCC2)oc2c(-c3cccc(-c4ccoc4)c3)cccc12 | 270 nM
12 | O=c1cc(N2CCOCC2)oc2c(-c3cccc(-c4ccc(CO)cc4)c3)cccc12 | 1000 nM
13 | NCc1ccc(-c2cccc(-c3cccc4c(=O)cc(N5CCOCC5)oc34)c2)cc1 | 1900 nM
14 | Cc1cc(-c2cccc(-c3cccc4c(=O)cc(N5CCOCC5)oc34)c2)cs1 | 1130 nM
15 | Cc1cscc1-c1cccc(-c2cccc3c(=O)cc(N4CCOCC4)oc23)c1 | 640 nM
16 | COC(=O)c1cc(N)cc(-c2cccc(-c3cccc4c(=O)cc(N5CCOCC5)oc34)c2)c1 | 260 nM
17 | O=c1cc(N2CCOCC2)oc2c(-c3cccc(-c4ccsc4)c3)cccc12 | 20 nM
18 | Cc1ccc(-c2cccc(-c3cccc4c(=O)cc(N5CCOCC5)oc34)c2)s1 | 1070 nM
19 | Cn1ccnc1-c1cccc(-c2cccc3c(=O)cc(N4CCOCC4)oc23)c1 | 3010 nM
20 | Cn1cncc1-c1cccc(-c2cccc3c(=O)cc(N4CCOCC4)oc23)c1 | 1230 nM
21 | O=c1cc(N2CCOCC2)oc2c(-c3cccc(-c4nccs4)c3)cccc12 | 490 nM
22 | O=c1cc(N2CCOCC2)oc2c(-c3cccc(-c4ccncc4)c3)cccc12 | 510 nM
23 | O=c1cc(N2CCOCC2)oc2c(-c3cccc(-c4ccccc4)c3)cccc12 | 180 nM
24 | COc1ccc(-c2cccc(-c3cccc4c(=O)cc(N5CCOCC5)oc34)c2)cc1 | 830 nM
25 | O=Cc1ccc(-c2cccc(-c3cccc4c(=O)cc(N5CCOCC5)oc34)c2)cc1 | 1100 nM
26 | Cc1ccsc1-c1cccc(-c2cccc3c(=O)cc(N4CCOCC4)oc23)c1 | 360 nM
27 | O=c1cc(N2CCOCC2)oc2c(-c3cccc(-c4cccs4)c3)cccc12 | 18 nM
28 | O=c1cc(N2CCOCC2)oc2c(-c3cccc(-c4ccccn4)c3)cccc12 | 880 nM
29 | O=c1cc(N2CCOCC2)oc2c(-c3cccc(-c4cc[nH]c4)c3)cccc12 | 1820 nM
30 | O=c1cc(N2CCOCC2)oc2c(-c3ccccc3)cccc12 [LY-294002] | 1600 nM
